≈ marks a conversion by molar mass, not a printed value. Like-named read-outs stand apart in the source and are kept apart here.

Data set [1] in a line: Distribution coefficients in octanol–water system. The format is physicochemical. The note with it: 25 °C. As to the method: Simulated gastric fluid (SGF) consisted of 0.2% (w/v) sodium chloride, 0.32% (w/v) pepsin, and 0.7% (v/v) HCl (final pH = 1.2). Simulated intestinal fluid (SIF) was prepared by dissolving 3 mM sodium taurocholate and 0.1% (w/v) pancreatin in phosphate buffer (final pH = 7.0). The solubility of acacetin was measured by adding excessive amounts of acacetin into glass vials containing 1.5 mL of water, pH 7.4 phosphate buffer, SGF, and SIF. The mixtures were allowed to reach equilibrium in a shaking incubator (FINEPCR, Gyeonggi-do, South Korea) at 500 rpm at 37 °C for 48 h. The samples were centrifuged at 16,000× g for 5 min, and the supernatant was passed through a 0.20-μm syringe filter to remove excess acacetin. Further, the concentration of acacetin in the filtrate was determined using the LC-MS/MS method. The distribution coefficients of acacetin in water (log P) and pH 7.4 phosphate buffer (log D7.4) were determined using an octanol–water system at 25 ± 0.5 °C. […] Finally, the acacetin concentrations in the octanol and water layers were determined using the LC-MS/MS method. The membrane permeability of acacetin and reference compounds (verapamil as a reference for high permeability and ranitidine as a reference for low permeability) was assessed by parallel artificial membrane permeability assay (PAMPA). […] The permeability was calculated using pION PAMPA Explorer ver. […]

Data set [2] can be described thus: Equilibrium solubility in water, pH 7.4 phosphate buffer, SGF and SIF. The class given is physicochemical. The method, then:
Simulated gastric fluid (SGF) consisted of 0.2% (w/v) sodium chloride, 0.32% (w/v) pepsin, and 0.7% (v/v) HCl (final pH = 1.2). Simulated intestinal fluid (SIF) was prepared by dissolving 3 mM sodium taurocholate and 0.1% (w/v) pancreatin in phosphate buffer (final pH = 7.0). The solubility of acacetin was measured by adding excessive amounts of acacetin into glass vials containing 1.5 mL of water, pH 7.4 phosphate buffer, SGF, and SIF. The mixtures were allowed to reach equilibrium in a shaking incubator (FINEPCR, Gyeonggi-do, South Korea) at 500 rpm at 37 °C for 48 h. The samples were centrifuged at 16,000× g for 5 min, and the supernatant was passed through a 0.20-μm syringe filter to remove excess acacetin. Further, the concentration of acacetin in the filtrate was determined using the LC-MS/MS method. The distribution coefficients of acacetin in water (log P) and pH 7.4 phosphate buffer (log D7.4) were determined using an octanol–water system at 25 ± 0.5 °C. The two phases were pre-saturated with each other by vigorous vortex-mixing for 15 min and further stabilized overnight for phase separation. A certain amount of acacetin (less than its solubility) was dissolved in the pre-saturated octanol, vortex mixed with the same volume of pre-saturated water for 1 h, shaken for 24 h, and further centrifuged at 16,000× g for 30 min. Finally, the acacetin concentrations in the octanol and water layers were determined using the LC-MS/MS method. The membrane permeability of acacetin and reference compounds (verapamil as a reference for high permeability and ranitidine as a reference for low permeability) was assessed by parallel artificial membrane permeability assay (PAMPA). The PAMPA was conducted using a commercially available PAMPA kit (GIT PAMPA Double Sink; pION Inc., Massachusetts, MA, USA) according to the manufacturer’s protocol. The permeability was calculated using pION PAMPA Explorer ver. 3.8 software (pION Inc., Massachusetts, MA, USA).

Data set [3] can be described thus: Blood-to-plasma concentration ratio. The class given is in vitro ADME. The note with it: Sprague-Dawley, rat, 37 °C, read-out: RB (blood-to-plasma concentration ratio). As to the method:
The fractions of unbound acacetin in plasma (fuP), microsomes (fuMIC), SGF (fuSGF), and SIF(fuSIF) were measured using a rapid equilibrium dialysis device (Thermo Fisher Scientific, Inc., Waltham, MA, USA) as previously described with slight modifications. Briefly, 0.2 mL of the matrix spiked with acacetin (10 μM) was placed into the “sample” chamber, and 0.4 mL of PBS was placed into the adjacent “buffer” chamber. The fractions of unbound acacetin were calculated as the concentration ratio between the two chambers. The blood-to-plasma concentration ratio (RB) of acacetin was determined as described previously. Briefly, 1-mL blood spiked with acacetin (1 μM) was incubated at 37 °C for 30 min. The blood sample was centrifuged at 2000× g for 5 min to prepare the plasma sample. The concentrations of acacetin in the aforementioned plasma and buffer samples were measured using the LC-MS/MS method.

Data set [4] is described as follows: Disappearance in rat plasma and tissue S9 fractions. The class given is in vitro ADME. The note with it: 10 μM, 5 min, S9 0.5 mg/mL, NADPH or UDPGA/alamethicin. The method, then:
The rat gut, spleen, kidney, liver, heart, brain, and lung were excised after cervical dislocation, rinsed with cold saline, blotted dry with tissue paper, and weighed. Each tissue sample was homogenized using a homogenizer (Ultra-Turrax T10 basi; IKA-Werke GmbH & Co. KG, Staufen, Germany) in cold 0.25 M sucrose solution. The homogenate was centrifuged at 9000× g for 30 min, and the supernatant fraction was stored at −80 °C until further use. The reaction mixture consisted of substrate, plasma, or tissue S9 fractions (protein concentration: 0.5 mg/mL) and NADPH (1 mM) or UDPGA (2 mM) in Tris buffer (100 mM; pH 7.4). After preincubation at 37 °C for 5 min, acacetin (final concentration: 10 μM) was added to initiate the enzyme reaction. After 5 min of incubation with shaking at 37 °C, the reaction was terminated by mixing the reaction mixture with acetonitrile containing IS (volume four times that of the reaction mixture). After vortex-mixing and centrifugation at 16,000× g for 10 min, 100 μL of the supernatant was obtained and stored at −80 °C until further LC-MS/MS assay.

Data set [5] concerns rat CYP2C. Description: Disappearance in RLM with CYP isoform-selective inhibitor SPZ. The class given is in vitro ADME. The settings on record: acacetin 20 μM, 10-μM SPZ, NADPH, 5 min. As to the method: (§1) To investigate hepatic phase I enzymes- and UGT-dependent metabolism of acacetin, the disappearance rate of acacetin at concentrations of 1–200 µM in RLM was measured in the presence of both NADPH and UDPGA. The substrate (acacetin) concentration ((S); µM) versus the initial metabolic rate (V; nmol/min/mg protein) profiles were interpreted based on Michaelis–Menten kinetics, and relevant parameters were estimated via nonlinear regression analysis (GraphPad Prism ver. 5.01; GraphPad Software, San Diego, CA, USA) using the following Michaelis–Menten equation: V = Vmax× [S]/Km× [S] where Km and Vmax are the Michaelis–Menten constant and maximal metabolic rate, respectively. The unbound intrinsic metabolic clearance (CLint) was calculated as Vmax/(Km × fuMIC). Furthermore, the disappearance of acacetin (20 μM) in the absence or presence of specific CYP isoform-selective inhibitors in RLM was determined to study the hepatic CYP-mediated metabolism of acacetin. Microsomal incubation mixtures (total volume of 200 μL) were prepared as follows: RLM (0.5 mg/mL microsomal protein), 1 mM NADPH, 10 mM MgCl2, 50 mM potassium phosphate buffer, acacetin, with or without CYP isoform-selective inhibitors (10 μM NF for rat CYP1A, 10-μM SPZ for rat CYP2C, 10-μM QND for rat CYP2D, and 10-μM KCZ for rat CYP3A). […]

The test system of data set [6] is rat CYP3A. Description: Disappearance in RLM with CYP isoform-selective inhibitor KCZ. The format is in vitro ADME. The note with it: acacetin 20 μM, 10-μM KCZ, NADPH, 5 min. As to the method:
as §1

On the set-up of data set [7]: method as in doi:10.5958/0974-360X.2019.00624.3. The settings on record: oral administration at 10 mg/kg; cited from earlier work.

For orientation: logP means a log measure of how a compound divides between an organic and an aqueous phase. Higher therefore signals a more lipophilic compound. As usually defined, the solubility is how much of the substance goes into solution per volume. For orientation: Cmax means the maximum level reached in the sampled fluid or tissue. By bioavailability is commonly meant dose-corrected exposure relative to a reference, in per cent. For `COc1ccc(-c2cc(=O)c3c(O)cc(O)cc3o2)cc1` [acacetin, Acacetin], in data set [1] (n-octanol/pH 7.4 phosphate buffer, pH 7.4, n-octanol/pH 7.4 phosphate buffer, read-out: Log D7.4), the logD is more than 3. In data set [1] (octanol/water, n-octanol/water), this molecule displayed a logP of more than 3. Also, the solubility at 48 h in data set [2] (aqueous buffer, thermodynamic from solid, pH 7.4 phosphate buffer, 37 °C, 48 h, read-out: Solubility, pH 7.4 phosphate buffer) was 0.0121 ± 0.0011 µg/mL (≈ 0.0426 µM); in data set [2] (fassgf or other biorelevant, thermodynamic from solid, SIF pH 7.0, 37 °C, 48 h, read-out: Solubility, SIF), 0.119 ± 0.008 µg/mL (≈ 0.419 µM); in data set [2] (pH 7 phosphate buffer, SGF and SIF, pH 7, in abstract, read-out: Solubility in pH 7 phosphate buffer and simulated GI fluids) it was not above 0.119 µg/mL; in data set [2] (simulated gastric fluid, thermodynamic from solid, SGF pH 1.2, 37 °C, 48 h, read-out: Solubility, SGF), 0.0593 ± 0.0071 µg/mL (≈ 0.209 µM); in data set [2] (thermodynamic from solid, water, 37 °C, 48 h, read-out: Solubility, Water) it was 0.0401 ± 0.0073 µg/mL (≈ 0.141 µM); in data set [2] (water, pH 7.4 phosphate buffer, SGF and SIF, pH 7.4, upper bound over all four media, read-out: Solubility in water, pH 7.4 buffer, SGF, and SIF), not above 0.119 µg/mL. Also, the blood plasma ratio at 30 min, 1 μM in data set [3] is approximately 1. In addition, the “Tissue-dependent metabolizing activity (disappearance rate)” value in data set [4] is on record as “the liver exhibited significantly higher metabolizing activity than all the tested tissues”. For the same molecule, in data set [5], the “Reduction of relative disappearance rate in presence of SPZ” value amounted to 25.8%. Also, in data set [6], the “Reduction of relative disappearance rate in presence of KCZ” value came out at 43.7%. Also, the peak concentration (Cmax) in data set [7] is on record as 1668 ng/mL. Besides, in data set [7], the bioavailability was 84%.
